Laboratory results: ChEMBL document CHEMBL4825706, “Synthesis and biological evaluation of selenogefitinib for reducing bleomycin-induced pulmonary fibrosis” (Bioorg Med Chem Lett, 2021)
Active and inactive are the calls of the source. The calls are words filed in the database; no cut-off is given here.

Columns and labels:
[1] = biological target: Epidermal growth factor receptor (Homo sapiens, UniProt P00533); assay: Inhibition of EGFR (unknown origin) by ADP-Glo kinase assay
[2] = tested on: L02; assay: Cytotoxicity against human L02 cells assessed as inhibition of cell growth measured by CCK8 assay; assay type: functional, cell-based
[3] = Cytotoxicity against human HBE cells assessed as inhibition of cell growth measured by CCK8 assay; assay type: ADME, cell-based
[4] = tested on: Mus musculus; assay: Antifibrotic activity in C57BL mouse model of BLM-induced lung fibrosis assessed as reduction in alveolar wall thickness by measuring lung coefficient at 60 mg/kg by hematoxylin and eosin staining based assay (reference value: 12.89 +/- 2.52 g); assay type: functional
[5] = tested on: Mus musculus; assay: Antifibrotic activity in C57BL mouse model of BLM-induced lung fibrosis assessed as reduction in infiltration of inflammatory cells at 60 mg/kg by hematoxylin and eosin staining based assay; assay type: functional, organism-based
[6] = tested on: Mus musculus; assay: Antifibrotic activity in C57BL mouse model of BLM-induced lung fibrosis assessed as reduction in collagen deposition in the lung at 60 mg/kg by masson staining method; assay type: functional, organism-based
[7] = tested on: Mus musculus; assay: Antifibrotic activity in C57BL mouse model of BLM-induced lung fibrosis assessed as HYP level at 60 mg/kg (reference value: 5.31 +/- 0.79 ug/mg); assay type: functional
[8] = tested on: Mus musculus; assay: Antifibrotic activity in C57BL mouse model of BLM-induced lung fibrosis assessed as MDA content at 60 mg/kg measured after 14 days (reference value: 9.93 +/- 1.41 nmol/ml); assay type: functional; conditions: time 14 day
[9] = tested on: Mus musculus; assay: Antifibrotic activity in C57BL mouse model of BLM-induced lung fibrosis assessed as IL-4 level in blood at 60 mg/kg measured after 14 days by flow cytometry (reference value: 2.72 +/- 0.14 pg/ml); assay type: functional; conditions: time 14 day
[10] = tested on: Mus musculus; assay: Antifibrotic activity in C57BL mouse model of BLM-induced lung fibrosis assessed as IL-6 level in blood at 60 mg/kg measured after 14 days by flow cytometry (reference value: 2.36 +/- 0.16 pg/ml); assay type: functional; conditions: time 14 day
[11] = tested on: Mus musculus; assay: Antifibrotic activity in C57BL mouse model of BLM-induced lung fibrosis assessed as TNF-alpha level in blood at 60 mg/kg measured after 14 days by flow cytometry (reference value: 3.12 +/- 0.11 pg/ml); assay type: functional; conditions: time 14 day

Epidermal growth factor receptor, sequence (P00533 whole entry): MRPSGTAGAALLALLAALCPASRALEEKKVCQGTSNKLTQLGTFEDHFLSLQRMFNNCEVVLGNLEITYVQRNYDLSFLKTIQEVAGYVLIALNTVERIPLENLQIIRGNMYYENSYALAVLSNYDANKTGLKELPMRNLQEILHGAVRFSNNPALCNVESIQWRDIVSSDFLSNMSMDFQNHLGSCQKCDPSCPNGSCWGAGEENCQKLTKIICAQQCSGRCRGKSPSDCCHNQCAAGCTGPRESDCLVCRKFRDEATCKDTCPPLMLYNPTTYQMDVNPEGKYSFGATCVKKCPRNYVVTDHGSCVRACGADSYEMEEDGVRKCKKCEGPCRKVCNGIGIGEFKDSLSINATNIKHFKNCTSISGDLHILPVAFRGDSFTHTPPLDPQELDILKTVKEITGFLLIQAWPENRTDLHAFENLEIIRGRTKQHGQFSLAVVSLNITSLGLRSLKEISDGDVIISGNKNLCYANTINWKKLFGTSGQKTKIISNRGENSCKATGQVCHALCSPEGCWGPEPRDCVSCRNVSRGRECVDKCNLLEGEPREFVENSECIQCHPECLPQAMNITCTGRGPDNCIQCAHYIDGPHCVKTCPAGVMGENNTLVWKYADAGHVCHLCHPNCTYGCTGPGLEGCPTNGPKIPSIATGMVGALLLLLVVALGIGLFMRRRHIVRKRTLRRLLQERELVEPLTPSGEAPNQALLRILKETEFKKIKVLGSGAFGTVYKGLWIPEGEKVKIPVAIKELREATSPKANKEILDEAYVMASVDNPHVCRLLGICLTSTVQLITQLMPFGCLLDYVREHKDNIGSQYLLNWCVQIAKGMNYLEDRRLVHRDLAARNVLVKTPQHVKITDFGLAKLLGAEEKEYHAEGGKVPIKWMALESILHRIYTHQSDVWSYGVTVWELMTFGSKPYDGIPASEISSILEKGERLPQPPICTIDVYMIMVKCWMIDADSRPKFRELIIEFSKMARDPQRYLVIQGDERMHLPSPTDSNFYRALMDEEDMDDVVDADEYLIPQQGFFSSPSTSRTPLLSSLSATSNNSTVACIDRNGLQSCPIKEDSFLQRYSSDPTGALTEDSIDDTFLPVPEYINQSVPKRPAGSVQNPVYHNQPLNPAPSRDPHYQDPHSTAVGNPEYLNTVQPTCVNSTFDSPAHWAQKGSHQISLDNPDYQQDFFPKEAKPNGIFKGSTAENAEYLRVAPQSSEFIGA

Row | Structure (SMILES) | IC50 [1] | IC50 [2] | IC50 [3] | Activity [4] | Activity [5] | Activity [6] | Activity [7] | Activity [8] | Activity [9] | Activity [10] | Activity [11]
1 | COc1cc2ncnc(Nc3ccc(F)c(Cl)c3)c2cc1OCCCN1CC[Se]CC1 | 0.0253 µM | 13.8 µM | 21.8 µM | 7.56 g | Active | Active | 3.01 µg/mg | 6.13 nmol/mL | 1.72 pg/mL | 1 pg/mL | 1.56 pg/mL
2 | COc1cc2ncnc(Nc3ccc(F)c(Cl)c3)c2cc1OCCCN1CCOCC1 [GEFITINIB] |  |  |  | 9.7 g |  | Active | 3.39 µg/mg | 8.92 nmol/mL | 2.17 pg/mL | 1.77 pg/mL | 2.39 pg/mL
